Measured values as given in patent publication US6506766B1 (Abbott Laboratories, priority 1998, dated 2003).
Like-named read-outs stand apart in the source and are kept apart here.

How the values were obtained:
[1] = molecular target: T1, human glucocorticoid receptor-α [GRX] isoform (Homo sapiens, UniProt P04150); assay: Radioligand binding with human glucocorticoid receptor cytosol ([3H]-dexamethasone competition); settings: read-out: Ki (nM) GR
T1 construct: host or cells: insect SF21 cells (baculovirus)
T1 sequence (P04150 1-777): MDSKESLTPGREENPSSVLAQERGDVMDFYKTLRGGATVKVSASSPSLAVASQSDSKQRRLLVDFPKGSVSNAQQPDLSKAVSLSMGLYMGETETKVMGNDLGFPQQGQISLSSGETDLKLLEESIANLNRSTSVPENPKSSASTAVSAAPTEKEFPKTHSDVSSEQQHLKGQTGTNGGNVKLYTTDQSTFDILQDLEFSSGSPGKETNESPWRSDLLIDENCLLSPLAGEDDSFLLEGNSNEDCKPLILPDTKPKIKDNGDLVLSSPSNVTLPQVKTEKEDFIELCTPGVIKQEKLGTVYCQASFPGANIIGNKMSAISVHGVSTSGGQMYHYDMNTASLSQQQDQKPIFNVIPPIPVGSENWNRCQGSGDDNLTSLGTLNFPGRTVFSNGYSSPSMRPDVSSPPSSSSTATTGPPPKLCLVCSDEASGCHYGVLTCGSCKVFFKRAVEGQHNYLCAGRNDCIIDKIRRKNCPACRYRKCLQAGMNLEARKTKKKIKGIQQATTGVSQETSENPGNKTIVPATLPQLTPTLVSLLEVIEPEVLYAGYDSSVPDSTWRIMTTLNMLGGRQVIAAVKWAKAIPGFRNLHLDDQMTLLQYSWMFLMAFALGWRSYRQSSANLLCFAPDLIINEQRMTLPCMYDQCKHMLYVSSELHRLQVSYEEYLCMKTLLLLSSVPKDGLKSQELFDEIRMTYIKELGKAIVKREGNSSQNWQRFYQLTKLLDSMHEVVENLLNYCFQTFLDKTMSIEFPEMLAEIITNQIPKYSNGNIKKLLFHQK

[2] = molecular target: T2, human progesterone receptor-A [PRA] isoform (Homo sapiens, UniProt P06401); assay: Radioligand binding with human progesterone receptor cytosol ([3H]-progesterone competition); settings: read-out: Ki (nM) PR
T2 construct: host or cells: insect SF21 cells (baculovirus)
T2 sequence (P06401 1-769 isoform P06401-2): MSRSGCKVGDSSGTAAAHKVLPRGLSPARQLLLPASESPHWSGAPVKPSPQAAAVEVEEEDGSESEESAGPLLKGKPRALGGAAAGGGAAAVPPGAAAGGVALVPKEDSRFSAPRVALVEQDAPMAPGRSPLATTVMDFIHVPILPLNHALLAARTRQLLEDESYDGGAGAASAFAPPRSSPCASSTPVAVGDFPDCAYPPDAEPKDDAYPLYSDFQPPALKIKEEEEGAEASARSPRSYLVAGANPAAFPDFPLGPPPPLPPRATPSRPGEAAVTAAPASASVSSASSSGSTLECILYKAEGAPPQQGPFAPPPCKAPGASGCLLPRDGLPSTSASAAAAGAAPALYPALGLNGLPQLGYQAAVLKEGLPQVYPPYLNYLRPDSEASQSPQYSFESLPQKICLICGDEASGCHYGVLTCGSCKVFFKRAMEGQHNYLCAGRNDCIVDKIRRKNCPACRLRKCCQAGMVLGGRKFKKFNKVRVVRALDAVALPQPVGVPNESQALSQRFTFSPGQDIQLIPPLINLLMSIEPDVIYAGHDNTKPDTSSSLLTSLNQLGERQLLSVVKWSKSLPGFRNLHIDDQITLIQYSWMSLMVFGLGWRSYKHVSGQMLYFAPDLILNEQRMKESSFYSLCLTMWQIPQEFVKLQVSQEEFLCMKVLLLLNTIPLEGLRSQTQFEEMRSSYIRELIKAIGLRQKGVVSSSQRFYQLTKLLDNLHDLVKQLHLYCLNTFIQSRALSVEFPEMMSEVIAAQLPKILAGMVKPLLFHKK

[3] = GRX cytosol expressed in insect SF21 cells, [3H]-Dex ~0.9 nM, 4° C. overnight, Ki by Cheng-Prusoff, KL ~[…]
[4] = PRA cytosol expressed in insect SF21 cells, [3H]Prog ~0.8 nM, 4° C. overnight, Ki by Cheng-Prusoff, KL ~4.5 nM

| SMILES | Ki [1, 3] [nM] | Ki [2, 4] [nM] | Ki [1] [nM] | Ki [2] [nM] |
| --- | --- | --- | --- | --- |
| CNC(=O)OCCC1Oc2cccc(OC)c2-c2ccc3c(c21)C(C)=CC(C)(C)N3 (stereo not shown) [Example 203, 2,5-Dihydro-10-methoxy-5-(2-(N-methyaminocarbonyloxyoxy)ethyl)-2,2,4-trimethyl-1H-[1]benzopyrano[3,4-f]quinoline] | 85 | ≥ 10000 | – | – |
| COCOCCC1Oc2cccc(OC)c2-c2ccc3c(c21)C(C)=CC(C)(C)N3 (stereo not shown) [Example 205, 2,5-Dihydro-10-methoxy-5-(2-methoxymethoxyethyl)-2,2,4-trimethyl-1H-[1]benzopyrano[3,4-f]quinoline] | 11.4 | ≥ 10000 | – | – |
| CCOC(=O)NCC1Oc2cccc(OC)c2-c2ccc3c(c21)C(C)=CC(C)(C)N3 (stereo not shown) [Example 207] | 22 | ≥ 10000 | – | – |
| C=C=C(C)C1Oc2cccc(OC)c2-c2ccc3c(c21)C(C)=CC(C)(C)N3 (stereo not shown) [Example 210, 2,5-Dihydro-10-methoxy-5-(-methylpropa-1,2-dienyl)-2,2,4-trimethyl-1H-[1]benzopyrano[3,4-f]quinoline] | – | – | 21 | 710 |
| COc1cccc2c1-c1ccc3c(c1C(c1cc(F)c(F)c(F)c1)O2)C(C)=CC(C)(C)N3 (stereo not shown) [Example 211] | 5.3 | ≥ 10000 | – | – |
| COc1cccc2c1-c1ccc3c(c1C(c1ccccn1)O2)C(C)=CC(C)(C)N3 (stereo not shown) [Example 213, 2,5-Dihydro-10-methoxy-5-(2-pyridyl)-2,2,4-trimethyl-1H-[1]benzopyrano[3,4-f]quinoline] | 67 | ≥ 10000 | – | – |
| COc1cccc2c1-c1ccc3c(c1C(c1cccnc1)O2)C(C)=CC(C)(C)N3 (stereo not shown) [Example 214, 2,5-Dihydro-10-methoxy-5-(3-pyridyl)-2,2,4-trimethyl-1H-[1]benzopyrano[3,4-f]quinoline] | 5.7 | ≥ 10000 | – | – |
| COc1cccc2c1-c1ccc3c(c1C(c1ccncc1)O2)C(C)=CC(C)(C)N3 (stereo not shown) [Example 215, 2,5-Dihydro-10-methoxy-5-(4-pyridyl)-2,2,4-trimethyl-1H-[1]benzopyrano[3,4-f]quinoline] | 20 | ≥ 10000 | – | – |
| C=CCC1Oc2ccc(O)c(Cl)c2-c2ccc3c(c21)C(C)=CC(C)(C)N3 (stereo not shown) [Example 216, 10-Chloro-9-hydroxy-5-(3-propenyl)-2,2,4-trimethyl-1H-2,5-dihydro-[1]benzopyrano[3,4-f]quinoline] | – | 7.6 | 0.58 | – |
| CC1=CC(C)(C)Nc2ccc3c(c21)C(c1ccccc1)Oc1ccc(O)c(Cl)c1-3 (stereo not shown) [Example 217, 10-Chloro-9-hydroxy-5-phenyl-2,2,4-trimethyl-1H-2,5-dihydro-[1]benzopyrano[3,4-f]quinoline] | 1 | 65.1 | – | – |
| CC1=CC(C)(C)Nc2ccc3c(c21)C(c1cc(C)cc(C)c1)Oc1ccc(O)c(Cl)c1-3 (stereo not shown) [Example 219, 10-Chloro-9-hydroxy-5-(3,5-dimethylphenyl)-2,2,4-trimethyl-1H-2,5-dihydro-[1]benzopyrano[3,4-f]quinoline] | 2.4 | 178 | – | – |
| C=CCC1Oc2ccc(Cl)c(C=C)c2-c2ccc3c(c21)C(C)=CC(C)(C)N3 (stereo not shown) [Example 228, 5-(3-Propenyl)-9-chloro-10-ethenyl-2,2,4-trimethyl-2,5-dihydro-1H-[1]benzopyrano[3,4-f]quinoline] | 5.4 | 29.5 | – | – |

More lines, main results first:

| Ki [1, 3] [nM] | Ki [2, 4] [nM] | SMILES | Ki [1] [nM] | Ki [2] [nM] |
| --- | --- | --- | --- | --- |
| 114 | ≥ 10000 | COc1cccc2c1-c1ccc3c(c1C(CCOC(=O)N1CCOCC1)O2)C(C)=CC(C)(C)N3 (stereo not shown) [Example 201, 2,5-Dihydro-10-methoxy-5-(2-(N-morpholinocarbonyloxy)ethyl)-2,2,4-trimethyl-1H-[1]benzopyrano[3,4-f]quinoline] | – | – |
| 134 | ≥ 10000 | COCCNC(=O)OCCC1Oc2cccc(OC)c2-c2ccc3c(c21)C(C)=CC(C)(C)N3 (stereo not shown) [Example 202, 2,5-Dihydro-10-methoxy-5-(2-(N-(2-methoxyethyl)aminocarbonyloxy)ethyl)-2,2,4-trimethyl-1H-[1]benzopyrano[3,4-f]quinoline] | – | – |
| 74 | ≥ 10000 | COc1cccc2c1-c1ccc3c(c1C(CCOC(=O)N(C)C)O2)C(C)=CC(C)(C)N3 (stereo not shown) [Example 204, 2,5-Dihydro-10-methoxy-5-(2-(N,N-dimethylaminocarbonyloxy)ethyl)-2,2,4-trimethyl-1H-[1]benzopyrano[3,4-f]quinoline] | – | – |
| 1.6 | 227 | CC1=CC(C)(C)Nc2ccc3c(c21)C(c1cccc(C(F)(F)F)c1)Oc1ccc(O)c(Cl)c1-3 (stereo not shown) [Example 218, 10-Chloro-9-hydroxy-5-(3-trifluoromethylphenyl)-2,2,4-trimethyl-1H-2,5-dihydro-[1]benzopyrano[3,4-f]quinoline] | – | – |
| 0.47 | 9.9 | CC1=CC(C)(C)Nc2ccc3c(c21)[C@H]([C@H]1C=CCC1)Oc1ccc(O)c(Cl)c1-3 [Example 222, (−)2,5(S)-Dihydro-9-hydroxy-10-chloro-2,2,4-trimethyl-5-(3R-cyclopentenyl)-1H-[1]benzopyrano[3,4-f]quinoline] | – | – |
| 2.6 | 297 | CC1=CC(C)(C)Nc2ccc3c(c21)C(c1cc(Cl)cc(Cl)c1)Oc1ccc(O)c(Cl)c1-3 (stereo not shown) [Example 223, 10-Chloro-9-hydroxy-5-(3,5-dichlorophenyl)-2,2,4-trimethyl-1H-2,5-dihydro-[1]benzopyrano[3,4-f]quinoline] | – | – |
| 57 | 786 | CC1=CC(C)(C)Nc2ccc3c(c21)[C@@H]([C@@H]1C=CCC1)Oc1ccc(O)c(Cl)c1-3 [Example 224] | – | – |
| 155 | 5010 | CC1=CC(C)(C)Nc2ccc3c(c21)[C@@H]([C@H]1C=CCC1)Oc1ccc(O)c(Cl)c1-3 [Example 225] | – | – |
| 2.6 | 220 | CC1=CC(C)(C)Nc2ccc3c(c21)C(c1ccc(F)c(F)c1)Oc1ccc(O)c(Cl)c1-3 (stereo not shown) [Example 226, 10-Chloro-9-hydroxy-5-(3,4-difluorophenyl)-2,2,4-trimethyl-1H-2,5-dihydro-[1]benzopyrano[3,4-f]quinoline] | – | – |
| 34.7 | 1340 | COc1c(Cl)ccc2c1-c1ccc3c(c1C(c1ccccc1)O2)C(C)=CC(C)(C)N3 (stereo not shown) [Example 229, 9-Chloro-10-methoxy-5-phenyl-2,2,4-trimethyl-2,5-dihydro-1H[1]benzopyrano[3,4-f]quinoline] | – | – |
| 2.4 | 50.3 | C=CCC1Oc2ccc(Cl)c(OC(F)F)c2-c2ccc3c(c21)C(C)=CC(C)(C)N3 (stereo not shown) [Example 230, 5-(3-Propenyl)-9-chloro-10-difluoromethoxy-2,2,4-trimethyl-2,5-dihydro-1H-[1]benzopyrano[3,4-f]quinoline] | – | – |
| 30.2 | 1870 | CC1=CC(C)(C)Nc2ccc3c(c21)C(c1ccccc1)Oc1ccc(Cl)c(OC(F)F)c1-3 (stereo not shown) [Example 231, 9-Chloro-10-difluoromethoxy-5-phenyl-2,2,4-trimethyl-2,5-dihydro-1H-[1]benzopyrano[3 4-f]quinoline] | – | – |
| 1.6 | 230 | COc1cc(F)cc2c1-c1ccc3c(c1C(c1ccccc1)O2)C(C)=CC(C)(C)N3 (stereo not shown) [Example 232, 8-Fluoro-10-methoxy-5-phenyl-2,2,4-trimethyl-2,5-dihydro-1H-[1]benzopyrano[3,4-f]quinoline] | – | – |
| 2.5 | 350 | C=CCC1Oc2cc(F)cc(OC)c2-c2ccc3c(c21)C(C)=CC(C)(C)N3 (stereo not shown) [Example 233, 5-(3-Propenyl)-8-fluoro-10-methoxy-2,2,4-trimethyl-2,5-dihydro-1H-[1]benzopyrano[3,4-f]quinoline] | – | – |
